# Patent US20160106102A1, “KNOWN AND NEW HETEROCYCLIC COMPOUNDS AS PEST CONTROL AGENTS” (BAYER CROPSCIENCE AKTIENGESELLSCHAFT, priority 2013, published 2016)
# Read-outs that look alike come from different tables or passages of the source.
# Assays:
# [1] = log P determination by LC-MS in the acidic range; format: physicochemical
# Text: The LC-MS determination in the acidic range is effected at pH 2.7 using 0.1% aqueous formic acid and acetonitrile (contains 0.1% formic acid) as eluents, linear gradient from 10% acetonitrile to 95% acetonitrile. Alternatively, the determination is effected in the acidic range at pH 2.3 using 0.1% aqueous phosphoric acid and acetonitrile as eluents; linear gradient from 10% acetonitrile to 95% acetonitrile.
# [2] = system: Myzus persicae; assay: Myzus persicae - spray test; format: in vivo; conditions: application rate of 500 g/ha, after 6 days, sprayed Chinese cabbage leaf discs infested by all stages, 100% = all aphids killed; for pest or weed control at 500 g/ha: Myzus persicae, foliar, 144 h, read-out: efficacy in %
# Experimental: Myzus persicae—spray test Solvent: 78 parts by weight of acetone • • 1.5 parts by weight of dimethylformamide Emulsifier: 0.5 part by weight of alkylaryl polyglycol ether To produce an appropriate active ingredient formulation, 1 part by weight of active ingredient is mixed with the specified amounts of solvent and emulsifier, and the concentrate is diluted to the desired concentration with emulsifier-containing water. Discs of Chinese cabbage leaves (Brassica pekinensis) infested by all stages of the green peach aphid (Myzus persicae) are sprayed with an active ingredient formulation of the desired concentration. After 6 days, the efficacy in % is determined. 100% means that all the aphids have been killed; 0% means that no aphids have been killed.
# [3] = system: Myzus persicae; assay: Myzus persicae - sachet test; format: in vivo; conditions: 100% = all animals killed; for pest or weed control at 6 ppm / pest or weed control at 30 ppm: Myzus persicae, read-out: efficacy (kill in %)
# How it was run: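 Active ingredient dissolved with 2% N-methylpyrrolidone and 2% diacetone alcohol, diluted in water, then pipetted into nutrient medium. Plate sealed and paired with a plate carrying green peach aphids. Kill in % scored after the set time (100% = all dead, 0% = none dead).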
# [4] = application rate of 6 ppm in nutrient medium
# [5] = application rate of 30 ppm in nutrient medium
# [6] = pH 2.7, LC-MS in the acidic range, read-out: log P (acid)
# [7] = pH 2.7, values given in the synthesis examples and NMR lists, read-out: HPLC-MS: log P
SMILES,log P (acid) ([1]; LC-MS in the acidic range),efficacy in % [2] [%],"efficacy (kill in %) [3, 4] [%]","efficacy (kill in %) [3, 5] [%]","log P (acid) ([1]; Table 2, compounds of the formula (I-2), acidic range pH 2.7 or pH 2.3)","chromatographic logP [1, 6]","chromatographic logP [1, 7]",pest or weed control at 500 g/ha [2] [%],"pest or weed control at 6 ppm [3, 4] [%]","pest or weed control at 30 ppm [3, 5] [%]"
Cc1cc(NC(=O)c2cccnc2)nn1C(=O)NC(C)C [Compound I-1-287],1.46,90,100,100,–,–,–,–,–,–
Cc1cc(NC(=O)c2cccnc2)nn1C(=O)NC(C)c1ncccn1 (centres unmarked) [Compound I-1-333],1.29,90,100,100,–,–,–,–,–,–
Cc1c(NC(=O)c2cccnc2)nn(Cc2ncccn2)c1C [Compound I-1-123],0.76,90,100,100,–,–,–,–,–,–
CSCCC(=O)n1nc(NC(=O)c2cccnc2)cc1C [Compound I-1-266],1.87,90,100,100,–,–,–,–,–,–
CCn1nc(NC(=O)c2cccnc2)cc1C [Compound I-1-38],0.93,100,100,100,–,–,–,–,–,–
Cc1ccnc(Cn2nc(NC(=O)c3cccnc3)cc2C)n1 [Compound I-1-31],0.96,90,100,100,–,–,–,–,–,–
COc1nc(NC(=O)c2cccnc2)nn1C [Compound I-2-16],–,90,–,100,0.00,–,–,–,–,–
CCOCn1nc(NC(=O)c2cccnc2)cc1C [Compound I-1-2],1.1,100,100,100,–,–,–,–,–,–
Cc1cc(N(C)C(=O)c2cccnc2)nn1CC[S+](C)[O-] (centres unmarked) [Compound I-1-186],0.16,100,100,100,–,–,–,–,–,–
Cc1cc(NC(=O)c2cccnc2)nn1CCCl [Compound I-1-33],1.16,100,100,100,–,–,–,–,–,–
CSCCn1nc(N(C)C(=O)c2cccnc2)cc1C [Compound I-1-187],1.17,90,100,100,–,–,–,–,–,–
Cc1cc(NC(=O)c2cccnc2)nn1CSc1ncccn1 [Compound I-1-234],1.25,90,100,100,–,–,–,–,–,–
Cc1cc(NC(=O)c2cccnc2)nn1C(=O)NCC(C)(C)C [Compound I-1-321],2.19,100,100,100,–,–,–,–,–,–
Cc1cc(NC(=O)c2cccnc2)nn1C(C)C [Compound I-1-49],1.4,80,100,100,–,–,–,–,–,–
Cc1cc(NC(=O)c2cccnc2)nn1S(C)(=O)=O [Compound I-1-277],1.03,100,100,100,–,–,–,–,–,–
O=C(Nc1nn(Cc2ncccn2)c2ccccc12)c1cccnc1 [Compound I-1-215],1.16,90,100,100,–,–,–,–,–,–
C#CCn1nc(NC(=O)c2cccnc2)cc1CC [Compound I-1-40],1.31,90,100,100,–,–,–,–,–,–
Cc1cc(NC(=O)c2cccnc2)nn1C(=O)CCS(C)(=O)=O [Compound I-1-268],1.04,100,100,100,–,–,–,–,–,–
CCCNC(=O)n1nc(NC(=O)c2cccnc2)cc1C [Compound I-1-314],1.56,90,100,100,–,–,–,–,–,–
COCn1nc(NC(=O)c2cccnc2)cc1C [Compound I-1-175],0.71,100,100,100,–,–,–,–,–,–

SMILES,log P (acid) ([1]; LC-MS in the acidic range),efficacy in % [2] [%],"efficacy (kill in %) [3, 4] [%]","efficacy (kill in %) [3, 5] [%]","log P (acid) ([1]; Table 2, compounds of the formula (I-2), acidic range pH 2.7 or pH 2.3)","chromatographic logP [1, 6]","chromatographic logP [1, 7]",pest or weed control at 500 g/ha [2] [%],"pest or weed control at 6 ppm [3, 4] [%]","pest or weed control at 30 ppm [3, 5] [%]"
CSCCn1nc(NC(=O)c2cccnc2)cc1C [Compound I-1-184],1.22,90,100,100,–,–,–,–,–,–
O=C(Nc1ccn(CC(F)(F)F)n1)c1cccnc1 [Compound I-1-10],1.43,90,100,100,–,–,–,–,–,–
O=C(Nc1ccn(Cc2ccccn2)n1)c1cccnc1 [Compound I-1-26],0.57,90,100,100,–,–,–,–,–,–
Cc1cc(NC(=O)c2cccnc2)nn1Cn1nccc1C(F)(F)F [Compound I-1-227],1.72,90,100,100,–,–,–,–,–,–
Cc1cc(NC(=O)c2cccnc2)nn1-c1cnccn1 [Compound I-1-55],1.27,80,–,100,–,–,–,–,–,–
Cc1cc(N(C)C(=O)c2cccnc2)nn1CC1CCCO1 (centres unmarked) [Compound I-1-181],1.05,90,–,80,–,–,–,–,–,–
"CCSCn1nc(NC(=O)c2cccnc2)cc1C [Compound I-1-242, N-{1-[(Ethylsulphanyl)methyl]-5-methyl-1H-pyrazol-3-yl}nicotinamide]",–,–,–,–,–,1.49,1.49,100,100,100
Cc1cc(NC(=O)c2cccnc2)nn1Cc1ccc(Cl)s1 [Compound I-1-297],2.07,90,–,100,–,–,–,–,–,–
COC(=O)OCCn1nc(NC(=O)c2cccnc2)cc1C [Compound I-1-191],0.98,90,100,100,–,–,–,–,–,–
C#CCn1nc(NC(=O)c2cccnc2)cc1C1CC1 [Compound I-1-43],1.41,90,100,100,–,–,–,–,–,–
Cc1cc(NC(=O)c2cccnc2)nn1Cc1ccccc1F [Compound I-1-64],1.82,90,100,100,–,–,–,–,–,–
CCc1nn2c(=O)cc(Cn3nc(NC(=O)c4cccnc4)cc3C)nc2s1 [Compound I-1-352],1.23,90,–,100,–,–,–,–,–,–
Cc1cc(NC(=O)c2cccnc2)nn1CS(C)(=O)=O [Compound I-1-244],0.59,90,100,100,–,–,–,–,–,–
O=C(Nc1ccn(Cc2ncccn2)n1)c1cccnc1 [Compound I-1-9],0.42,100,100,100,–,–,–,–,–,–
"Cc1cc(NC(=O)c2cccnc2)nn1-c1ncccn1 [Compound I-1-23, N-[5-Methyl-1-(pyrimidin-2-yl)-1H-pyrazol-3-yl]nicotinamide]",–,–,–,–,–,1.16,1.14,100,100,100
Cc1cc(NC(=O)c2cccnc2)nn1-c1ncccc1Cl [Compound I-1-34],1.35,100,100,100,–,–,–,–,–,–
Cc1cc(NC(=O)c2cccnc2)nn1S(=O)(=O)c1ccccn1 [Compound I-1-279],1.51,90,100,100,–,–,–,–,–,–
Cc1cc(NC(=O)c2cccnc2)nn1C(=O)NCC1COCCO1 (centres unmarked) [Compound I-1-310],1.2,100,100,100,–,–,–,–,–,–
"CCS(=O)(=O)Cn1nc(NC(=O)c2cccnc2)cc1C [Compound I-1-246, N-{1-[(Ethylsulphonyl)methyl]-5-methyl-1H-pyrazol-3-yl}nicotinamide]",–,–,–,–,–,0.83,0.83,100,100,100
Cc1cc(NC(=O)c2cccnc2)nn1C(=O)OCC(F)(F)F [Compound I-1-259],1.79,90,100,100,–,–,–,–,–,–
